These results are taken from ChEMBL document CHEMBL3272126 (J Med Chem, 1977).

As usually defined, the ED50 is the dose that gives a 50% effect, or the effect in half of the subjects.

For data set [1], the system named is Mus musculus. Nature of the data set: Anti-tremorine activity against sc dosed albino mouse assessed as normalized dose for reversal of tremorine-induced spontaneous activity depression. The class given is functional.
Data set [2] concerns Mus musculus. Nature of the data set: Toxicity in sc dosed albino mouse assessed as mydriasis. The data set is classed as organism-based. Conditions: in vivo.

Each structure is given as a SMILES string.

As for `CN1[C@@H]2CC[C@H]1CC(OC(=O)[C@H](CO)c1ccccc1)C2` (stereo partly drawn) [ENDO-ATROPINE], the ND in the data set on Mus musculus [1] amounted to 2.2 mg/kg. The ED50 in the data set with Mus musculus [2] was determined as 0.061 mg/kg.
For `CN1[C@@H]2C[C@@H](OC(=O)[C@H](CO)c3ccccc3)C[C@H]1[C@@H]1O[C@@H]12` [SCOPOLAMINE], in the data set with Mus musculus [1], the ND is 1.3 mg/kg. The ED50 with Mus musculus [2] stood at 0.012 mg/kg.
